The record followed here is patent publication US20250120967A1, “TYROSINE KINASES INHIBITORS AND USES THEREOF” (GREAT NOVEL THERAPEUTICS BIOTECH & MEDICALS CORPORATION, priority 2023, published 2025).

The term inhibition denotes the drop in the measured response relative to a control, in per cent.

Common to all, as to test: Tyrosine kinase inhibition assay
Assay type in all cases: biochemical
What all share (conditions): single concentration 1.0 μM, read-out: percent inhibition

One experiment addresses T1, TNK1 (Homo sapiens, UniProt Q13470).
T1 sequence (Q13470 1-666): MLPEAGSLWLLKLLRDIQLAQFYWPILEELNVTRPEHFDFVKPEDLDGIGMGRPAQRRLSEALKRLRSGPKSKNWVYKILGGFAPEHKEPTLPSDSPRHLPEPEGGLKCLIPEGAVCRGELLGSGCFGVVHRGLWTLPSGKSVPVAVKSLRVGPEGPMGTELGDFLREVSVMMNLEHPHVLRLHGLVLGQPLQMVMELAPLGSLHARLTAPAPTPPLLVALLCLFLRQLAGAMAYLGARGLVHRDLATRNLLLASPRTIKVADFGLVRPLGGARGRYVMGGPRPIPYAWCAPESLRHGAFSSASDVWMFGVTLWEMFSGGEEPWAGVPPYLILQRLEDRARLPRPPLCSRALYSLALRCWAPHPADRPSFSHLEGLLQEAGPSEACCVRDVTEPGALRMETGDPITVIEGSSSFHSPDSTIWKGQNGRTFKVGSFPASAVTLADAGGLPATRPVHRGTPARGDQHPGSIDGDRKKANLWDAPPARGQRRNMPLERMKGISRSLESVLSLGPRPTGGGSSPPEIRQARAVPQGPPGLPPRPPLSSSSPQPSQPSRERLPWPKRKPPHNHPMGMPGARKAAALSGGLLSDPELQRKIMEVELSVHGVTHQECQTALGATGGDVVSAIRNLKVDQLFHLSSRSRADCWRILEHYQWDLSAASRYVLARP
The gist of the method: (§1)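 Kinase activity was measured by Z′-LYTE peptide assay with ATP at the apparent Km, in kinase buffer (50 mM HEPES pH 7.5, 0.01% BRIJ-35, 10 mM MgCl2, 1 mM EGTA) with 1% DMSO final. Compounds were tested at a single 1.0 μM concentration and reported as percent inhibition; >80% counted as a hit.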

Experiment [1] has as its target PIK3CB/PIK3R1 (p110 beta/p85 alpha) (Homo sapiens, UniProt P42338). The gist of the method:
as §1

A further experiment deals with YES1 (Homo sapiens, UniProt P07947). The gist of the method:
as §1

Another experiment deals with AURKB (Aurora B) (Homo sapiens, UniProt Q96GD4). The gist of the method:
as §1

Another experiment has as its target T2, JAK3 (Homo sapiens, UniProt P52333).
T2 sequence (P52333 1-1124): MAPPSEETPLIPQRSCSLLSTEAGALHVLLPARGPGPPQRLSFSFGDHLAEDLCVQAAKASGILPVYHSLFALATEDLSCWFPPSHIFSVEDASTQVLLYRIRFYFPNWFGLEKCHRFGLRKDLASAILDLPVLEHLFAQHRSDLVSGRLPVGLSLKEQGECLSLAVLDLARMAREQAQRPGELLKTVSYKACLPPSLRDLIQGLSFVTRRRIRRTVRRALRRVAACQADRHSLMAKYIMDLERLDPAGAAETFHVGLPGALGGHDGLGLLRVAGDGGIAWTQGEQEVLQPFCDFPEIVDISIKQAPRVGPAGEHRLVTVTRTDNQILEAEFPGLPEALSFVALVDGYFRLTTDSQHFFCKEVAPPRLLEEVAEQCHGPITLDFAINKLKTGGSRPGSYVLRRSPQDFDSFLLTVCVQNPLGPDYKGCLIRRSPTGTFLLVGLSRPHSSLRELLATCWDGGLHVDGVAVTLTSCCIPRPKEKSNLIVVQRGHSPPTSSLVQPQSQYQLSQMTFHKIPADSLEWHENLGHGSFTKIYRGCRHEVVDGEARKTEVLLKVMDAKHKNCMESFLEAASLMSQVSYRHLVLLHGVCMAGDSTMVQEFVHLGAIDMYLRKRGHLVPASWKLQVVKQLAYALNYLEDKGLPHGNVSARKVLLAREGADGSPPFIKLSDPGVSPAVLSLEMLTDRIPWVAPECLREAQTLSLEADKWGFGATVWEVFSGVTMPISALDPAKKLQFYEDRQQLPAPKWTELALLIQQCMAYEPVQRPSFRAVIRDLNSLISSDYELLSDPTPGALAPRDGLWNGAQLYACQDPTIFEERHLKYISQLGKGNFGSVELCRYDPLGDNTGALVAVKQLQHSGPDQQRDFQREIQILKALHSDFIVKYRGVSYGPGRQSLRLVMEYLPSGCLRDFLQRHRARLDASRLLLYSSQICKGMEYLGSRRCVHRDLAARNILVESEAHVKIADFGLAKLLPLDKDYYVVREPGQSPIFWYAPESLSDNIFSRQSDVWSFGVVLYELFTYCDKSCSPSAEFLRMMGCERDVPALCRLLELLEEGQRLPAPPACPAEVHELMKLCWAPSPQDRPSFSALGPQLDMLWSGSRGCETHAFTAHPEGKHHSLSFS
The gist of the method:
as §1

Chain of AURKB (Aurora B) (Q96GD4 whole entry): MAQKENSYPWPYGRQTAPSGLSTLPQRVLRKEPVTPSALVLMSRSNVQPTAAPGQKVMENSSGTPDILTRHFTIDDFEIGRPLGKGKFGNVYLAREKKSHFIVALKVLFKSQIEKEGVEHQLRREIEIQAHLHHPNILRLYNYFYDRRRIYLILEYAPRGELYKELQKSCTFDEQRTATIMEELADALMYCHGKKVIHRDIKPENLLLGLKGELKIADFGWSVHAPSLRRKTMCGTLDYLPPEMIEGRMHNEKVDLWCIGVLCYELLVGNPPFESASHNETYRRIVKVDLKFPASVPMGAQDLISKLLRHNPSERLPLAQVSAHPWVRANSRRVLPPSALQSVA
Chain of YES1 (P07947 whole entry): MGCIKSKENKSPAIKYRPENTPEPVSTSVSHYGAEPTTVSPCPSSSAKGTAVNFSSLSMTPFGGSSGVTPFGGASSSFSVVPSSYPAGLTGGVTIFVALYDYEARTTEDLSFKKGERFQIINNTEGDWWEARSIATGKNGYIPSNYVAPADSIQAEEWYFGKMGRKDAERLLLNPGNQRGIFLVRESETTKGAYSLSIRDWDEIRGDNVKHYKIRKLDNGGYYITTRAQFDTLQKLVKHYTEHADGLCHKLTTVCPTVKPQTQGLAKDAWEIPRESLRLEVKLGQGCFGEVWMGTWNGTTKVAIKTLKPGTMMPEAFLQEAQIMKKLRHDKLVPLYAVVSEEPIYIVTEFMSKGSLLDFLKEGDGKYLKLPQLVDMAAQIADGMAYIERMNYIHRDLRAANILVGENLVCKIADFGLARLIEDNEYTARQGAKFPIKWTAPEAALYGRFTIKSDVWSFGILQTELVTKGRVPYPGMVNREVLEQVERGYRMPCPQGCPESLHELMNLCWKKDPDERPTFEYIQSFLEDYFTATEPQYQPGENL
Chain of PIK3CB/PIK3R1 (p110 beta/p85 alpha) (P42338 whole entry): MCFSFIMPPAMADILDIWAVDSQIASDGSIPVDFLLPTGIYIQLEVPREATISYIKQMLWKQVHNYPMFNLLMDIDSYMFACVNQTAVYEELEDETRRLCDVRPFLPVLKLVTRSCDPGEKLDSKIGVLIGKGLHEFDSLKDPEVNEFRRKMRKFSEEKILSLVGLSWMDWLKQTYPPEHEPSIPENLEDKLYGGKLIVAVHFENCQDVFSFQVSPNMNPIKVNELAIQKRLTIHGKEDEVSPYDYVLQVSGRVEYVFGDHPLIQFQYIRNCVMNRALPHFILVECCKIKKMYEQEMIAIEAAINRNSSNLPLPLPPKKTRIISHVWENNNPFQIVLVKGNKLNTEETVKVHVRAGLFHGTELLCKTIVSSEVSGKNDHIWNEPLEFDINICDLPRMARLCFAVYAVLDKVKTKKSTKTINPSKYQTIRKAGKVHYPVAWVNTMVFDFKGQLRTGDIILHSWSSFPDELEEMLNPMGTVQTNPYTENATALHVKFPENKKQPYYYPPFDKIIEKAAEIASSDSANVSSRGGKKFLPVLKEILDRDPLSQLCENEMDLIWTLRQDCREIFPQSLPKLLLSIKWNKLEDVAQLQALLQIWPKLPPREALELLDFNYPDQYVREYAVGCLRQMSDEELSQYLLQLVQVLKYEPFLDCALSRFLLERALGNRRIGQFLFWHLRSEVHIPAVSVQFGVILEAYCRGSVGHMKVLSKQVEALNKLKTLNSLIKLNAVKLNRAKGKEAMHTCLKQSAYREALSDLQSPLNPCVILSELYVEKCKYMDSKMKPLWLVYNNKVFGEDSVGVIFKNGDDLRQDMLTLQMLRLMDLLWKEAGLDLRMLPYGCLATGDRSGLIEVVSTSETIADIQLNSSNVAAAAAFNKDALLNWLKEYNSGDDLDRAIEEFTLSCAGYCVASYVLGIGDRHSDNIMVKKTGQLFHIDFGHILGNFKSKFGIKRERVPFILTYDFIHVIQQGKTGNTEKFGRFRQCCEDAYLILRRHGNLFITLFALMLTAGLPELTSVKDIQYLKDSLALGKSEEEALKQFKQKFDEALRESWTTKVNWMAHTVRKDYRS
Chain of PIK3CB/PIK3R1 (p110 beta/p85 alpha) (P27986 whole entry partner): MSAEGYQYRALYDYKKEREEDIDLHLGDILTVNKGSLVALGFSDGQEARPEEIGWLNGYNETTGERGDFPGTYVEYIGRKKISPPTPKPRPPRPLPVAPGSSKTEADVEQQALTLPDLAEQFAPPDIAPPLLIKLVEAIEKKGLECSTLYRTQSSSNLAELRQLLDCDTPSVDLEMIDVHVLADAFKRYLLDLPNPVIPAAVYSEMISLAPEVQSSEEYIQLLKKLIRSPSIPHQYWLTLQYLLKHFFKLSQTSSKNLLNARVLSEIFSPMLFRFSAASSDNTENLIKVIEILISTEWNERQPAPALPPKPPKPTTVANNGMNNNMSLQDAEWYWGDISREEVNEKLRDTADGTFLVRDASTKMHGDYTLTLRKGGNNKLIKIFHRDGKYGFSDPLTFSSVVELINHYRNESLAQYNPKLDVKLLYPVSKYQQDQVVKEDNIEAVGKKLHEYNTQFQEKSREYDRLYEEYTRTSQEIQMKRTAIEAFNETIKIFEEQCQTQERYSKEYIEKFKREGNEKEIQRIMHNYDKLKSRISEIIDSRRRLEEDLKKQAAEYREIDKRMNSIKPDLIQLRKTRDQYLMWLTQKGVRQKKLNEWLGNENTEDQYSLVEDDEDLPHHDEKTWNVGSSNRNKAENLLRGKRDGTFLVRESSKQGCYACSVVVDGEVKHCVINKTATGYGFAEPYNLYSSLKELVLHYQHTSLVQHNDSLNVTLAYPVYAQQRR

On to `COc1cc2nccc(Oc3ccc(NC(=O)C4(C(=O)Nc5ccc(F)cc5)CC4)cc3)c2cc1OC` [Cabozantinib, reference compound], for which the inhibition at 1 µM was found to be 74% on TNK1; 2% in experiment [1]; 63% on YES1; 84% on AURKB (Aurora B); 9% at JAK3.
The like results for `COc1cc2nccc(Oc3ccc(NC(=O)C4(NC(=O)c5ccc(F)cc5)CC4)cc3F)c2cc1OC` [Cbo-02, N-(1-((4-((6,7-diMethoxyquinolin-4-yl)oxy)-3-fluorophenyl)carbamoyl)cyclopropyl)-4-fluorobenzamide] were, in that order, 17%, 3%, 34%, 99% and 11%.
The like results for `COc1cc2nccc(Oc3ccc(NC(=O)C4(NC(=O)c5ccc(F)cc5)CC4)cc3F)c2cc1Oc1ccc(N)cc1F` [Cbo-10] were, in that order, 39%, 22%, 64%, 83% and 9%.
For `COc1cc2nccc(Oc3ccc(NC(=O)C4(NC(=O)c5ccc(F)cc5)CC4)cc3F)c2cc1Oc1c(F)cc(N)cc1F` [Cbo-14], in that order: 64%, 0%, 63%, 84% and 21%.
`COc1cc2nccc(Oc3ccc(NC(=O)C4(C(=O)Nc5ccc(F)cc5)CC4)cc3F)c2cc1Oc1ccc(N)cc1F` [Cbo-23]: the inhibition at 1 µM on TNK1 was 92%; in experiment [1] it was -4%; on YES1, 94%; at AURKB (Aurora B) it was 67%; on JAK3, 17%.
